Data from patent US10597388B2, “Pyridazinone herbicides” (FMC CORPORATION, priority 2014, dated 2020).

Experiments:
Test in all cases: Test D controlled growth environment herbicide test, pre- and postemergence
Assay type in all cases: in vivo
[1] = tested on: field poppy (Papaver rhoeas)
Procedure, shortened: (§1)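 Species sown in silt loam and sprayed preemergence, or grown in peat-based medium to 2–18 cm (1- to 4-leaf stage) and sprayed postemergence, with compounds in non-phytotoxic solvent plus surfactant. Visual injury scored versus controls after 14–21 d in a controlled environment, 0 (no effect) to 100 (complete control).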

[2] = tested on: ryegrass, Italian (Italian ryegrass, Lolium multiflorum)
Procedure, shortened: as §1

[3] = tested on: lambsquarters (Chenopodium album)
Procedure, shortened: as §1

[4] = tested on: buckwheat, wild (wild buckwheat, Polygonum convolvulus)
Procedure, shortened: as §1

[5] = tested on: blackgrass (Alopecurus myosuroides)
Procedure, shortened: as §1

[6] = tested on: barley, winter (winter barley, Hordeum vulgare)
Procedure, shortened: as §1

[7] = tested on: galium (catchweed bedstraw, Galium aparine)
Procedure, shortened: as §1

[8] = tested on: speedwell (bird's-eye speedwell, Veronica persica)
Procedure, shortened: as §1

[9] = tested on: oilseed rape (Brassica napus)
Procedure, shortened: as §1

[10] = tested on: chamomile (scentless chamomile, Matricaria inodora)
Procedure, shortened: as §1

[11] = tested on: chickweed (common chickweed, Stellaria media)
Procedure, shortened: as §1

[12] = tested on: bromegrass, downy (downy bromegrass, Bromus tectorum)
Procedure, shortened: as §1

[13] = tested on: canarygrass (Phalaris minor)
Procedure, shortened: as §1

[14] = Postemergence, 31 g ai/ha, scale 0 to 100 (0 no effect, 100 complete control)
[15] = Postemergence, 125 g ai/ha, visual rating on scale 0 (no effect) to 100 (complete control), 14 to 21 d
[16] = Postemergence, 250 g ai/ha, scale 0 to 100 (0 no effect, 100 complete control)
[17] = Preemergence, 125 g ai/ha, scale 0 to 100 (0 no effect, 100 complete control)
[18] = Preemergence, 250 g ai/ha, scale 0 to 100 (0 no effect, 100 complete control)
[19] = postemergence, 62 g ai/ha, scale 0 to 100, 0 no effect, 100 complete control
[20] = Preemergence, 62 g ai/ha, scale 0 to 100 (0 no effect, 100 complete control)

CCOC(=O)Oc1c(C)nn(C)c(=O)c1-c1c(C)sc2ccc(C)cc12 [Compound 82]
0: Plant response rating, Buckwheat, Wild [4, 20] | Plant response rating, Buckwheat, Wild [4, 18] | Barley, Winter plant response rating [6, 14] | Plant response rating, Barley, Winter [6, 15] | Plant response rating, Barley, Winter [6, 16] | Plant response rating (scale of 0 to 100), Barley, Winter ([6]; Preemergence, 31 g ai/ha) | Plant response rating, Barley, Winter [6, 20] | Plant response rating, Barley, Winter [6, 19]
45: Blackgrass plant response rating [5, 14] | Plant response rating, Oilseed Rape [9, 19] | Plant response rating (scale of 0 to 100), Bromegrass, Downy ([12]; Preemergence, 31 g ai/ha) | Plant response rating, Bromegrass, Downy [12, 19]
65: Plant response rating, Bromegrass, Downy [12, 20]
75: Plant response rating (scale of 0 to 100), Ryegrass, Italian ([2]; Preemergence, 31 g ai/ha) | Plant response rating (scale of 0 to 100), Lambsquarters ([3]; Preemergence, 31 g ai/ha) | Plant response rating, Blackgrass [5, 15] | Plant response rating, Blackgrass [5, 20] | Plant response rating, Blackgrass [5, 17] | Plant response rating (scale of 0 to 100), Speedwell ([8]; Preemergence, 31 g ai/ha) | Plant response rating (scale of 0 to 100), Speedwell ([8]; Preemergence, 62 g ai/ha) | Plant response rating, Speedwell [8, 19] | Plant response rating, Canarygrass [13, 15] | Plant response rating (scale of 0 to 100), Canarygrass ([13]; Preemergence, 31 g ai/ha)
95: Plant response rating, Field Poppy [1, 15] | Plant response rating (scale of 0 to 100), Field Poppy ([1]; Preemergence, 31 g ai/ha) | Plant response rating, Ryegrass, Italian [2, 18] | Lambsquarters plant response rating [3, 14] | Plant response rating, Lambsquarters [3, 15] | Plant response rating (scale of 0 to 100), Lambsquarters ([3]; Preemergence, 62 g ai/ha) | Plant response rating, Lambsquarters [3, 19] | Plant response rating, Chickweed [11, 15] | Plant response rating, Canarygrass [13, 18]
55: Bromegrass, Downy plant response rating [12, 14] | Plant response rating, Canarygrass [13, 19]
100: Plant response rating, Field Poppy [1, 16] | Plant response rating (scale of 0 to 100), Field Poppy ([1]; Preemergence, 62 g ai/ha) | Plant response rating, Field Poppy [1, 17] | Plant response rating, Field Poppy [1, 18] | Plant response rating, Lambsquarters [3, 16] | Plant response rating, Lambsquarters [3, 17] | Plant response rating, Lambsquarters [3, 18] | Plant response rating, Buckwheat, Wild [4, 15] | Plant response rating, Buckwheat, Wild [4, 16] | Plant response rating, Buckwheat, Wild [4, 19] | Plant response rating, Galium [7, 15] | Plant response rating, Galium [7, 16] | Plant response rating, Galium [7, 19] | Plant response rating, Speedwell [8, 17] | Plant response rating, Speedwell [8, 18] | Plant response rating, Chamomile [10, 15] | Plant response rating, Chamomile [10, 16] | Plant response rating (scale of 0 to 100), Chamomile ([10]; Preemergence, 31 g ai/ha) | Plant response rating (scale of 0 to 100), Chamomile ([10]; Preemergence, 62 g ai/ha) | Plant response rating, Chamomile [10, 17] | Plant response rating, Chamomile [10, 18] | Plant response rating, Chamomile [10, 19] | Plant response rating, Chickweed [11, 16] | Plant response rating (scale of 0 to 100), Chickweed ([11]; Preemergence, 31 g ai/ha) | Plant response rating (scale of 0 to 100), Chickweed ([11]; Preemergence, 62 g ai/ha) | Plant response rating, Chickweed [11, 17] | Plant response rating, Chickweed [11, 18]
85: Plant response rating, Field Poppy [1, 19] | Ryegrass, Italian plant response rating [2, 14] | Plant response rating, Ryegrass, Italian [2, 19] | Buckwheat, Wild plant response rating [4, 14] | Plant response rating, Galium [7, 18] | Plant response rating, Speedwell [8, 15] | Plant response rating, Speedwell [8, 16] | Plant response rating, Bromegrass, Downy [12, 18] | Plant response rating, Canarygrass [13, 16] | Plant response rating (scale of 0 to 100), Canarygrass ([13]; Preemergence, 62 g ai/ha)
35: Plant response rating (scale of 0 to 100), Buckwheat, Wild ([4]; Preemergence, 31 g ai/ha) | Plant response rating (scale of 0 to 100), Oilseed Rape ([9]; Preemergence, 62 g ai/ha) | Plant response rating, Oilseed Rape [9, 17]
15: Plant response rating, Buckwheat, Wild [4, 17]
60: Plant response rating (scale of 0 to 100), Galium ([7]; Preemergence, 31 g ai/ha) | Plant response rating (scale of 0 to 100), Galium ([7]; Preemergence, 62 g ai/ha) | Plant response rating, Oilseed Rape [9, 15] | Plant response rating, Oilseed Rape [9, 18] | Plant response rating, Bromegrass, Downy [12, 15] | Plant response rating, Bromegrass, Downy [12, 16]
50: Canarygrass plant response rating [13, 14]
25: Plant response rating, Barley, Winter [6, 18] | Oilseed Rape plant response rating [9, 14]
90: Plant response rating, Ryegrass, Italian [2, 15] | Plant response rating, Ryegrass, Italian [2, 16] | Plant response rating, Ryegrass, Italian [2, 17] | Galium plant response rating [7, 14] | Chamomile plant response rating [10, 14] | Plant response rating, Chickweed [11, 19] | Plant response rating, Canarygrass [13, 17]
70: Field Poppy plant response rating [1, 14] | Plant response rating (scale of 0 to 100), Blackgrass ([5]; Preemergence, 31 g ai/ha) | Plant response rating, Blackgrass [5, 19] | Speedwell plant response rating [8, 14]
5: Plant response rating, Barley, Winter [6, 17]
80: Plant response rating (scale of 0 to 100), Ryegrass, Italian ([2]; Preemergence, 62 g ai/ha) | Plant response rating, Blackgrass [5, 16] | Plant response rating, Blackgrass [5, 18] | Plant response rating, Galium [7, 17] | Plant response rating, Oilseed Rape [9, 16] | Chickweed plant response rating [11, 14] | Plant response rating, Bromegrass, Downy [12, 17]
30: Plant response rating (scale of 0 to 100), Oilseed Rape ([9]; Preemergence, 31 g ai/ha)
